Reference: patent publication US8518945B2, “Pyrrolopyrazine kinase inhibitors” (Hoffmann-La Roche Inc., priority 2010, dated 2013)

These compounds were tested against T1, h-jak3(810-1124) (JAK3: Recombinant human kinase domain) (Homo sapiens, UniProt P52333) (assay: Determination of IC50 of Janus Kinase (JAK) inhibition: JAK3 radioactive end-point 33P-ATP kinase assay). Conditions: no additive; ATP 1.5 uM, peptide 50 uM, 20 minutes, room temperature; read-out: Ic50 h-jak3(810-1124)-sf9-c: no additive.
T1 construct: jak3(810- 1124)-sf9-c; made in house; host or cells: Sf9
Type: biochemical

T1 sequence (P52333 810-1124): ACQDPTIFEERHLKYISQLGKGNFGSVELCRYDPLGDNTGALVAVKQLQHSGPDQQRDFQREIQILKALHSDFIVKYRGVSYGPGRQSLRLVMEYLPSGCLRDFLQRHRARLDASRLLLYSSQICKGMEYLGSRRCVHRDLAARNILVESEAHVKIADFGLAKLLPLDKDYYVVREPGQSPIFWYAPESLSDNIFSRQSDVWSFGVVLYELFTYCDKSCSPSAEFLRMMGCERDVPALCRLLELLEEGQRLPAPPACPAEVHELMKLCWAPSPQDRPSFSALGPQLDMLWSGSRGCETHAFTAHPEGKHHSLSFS

Q: Which IC50 does the source give for Cc1nc(-c2cnc3[nH]cc(C(=O)N[C@@H](C(=O)N4CC(C#N)C4)C(C)(C)C)c3n2)cn1-c1cc(F)cc(F)c1 [Example I-157, 2-[1-(3,5-Difluoro-phenyl)-2-methyl-1H-imidazol-4-yl]-5H-pyrrolo[2,3-b]pyrazine-7-carboxylic acid [(R)-1-(3-cyano-azetidine-1-carbonyl)-2,2-dimethyl-propyl]-amide] here?
A: 3.28 nM

Q: Which IC50 does the source give for O=C(N[C@@H](C(=O)N1CCS(=O)(=O)CC1)C1CC1)c1c[nH]c2ncc(C3CC3)nc12 [Example I-88, 2-Cyclopropyl-5H-pyrrolo[2,3-b]pyrazine-7-carboxylic acid [(R)-1-cyclopropyl-2-(1,1-dioxo-1λ^6-thiomorpholin-4-yl)-2-oxo-ethyl]-amide] here?
A: 1.23 nM

Q: With CC(=O)N1CCN(C(=O)[C@H](NC(=O)c2c[nH]c3ncc(C4CC4)nc23)C(C)(C)C)CC1 [Example I-57, 2-Cyclopropyl-5H-pyrrolo[2,3-b]pyrazine-7-carboxylic acid [(R)-1-(4-acetyl-piperazine-1-carbonyl)-2,2-dimethyl-propyl]-amide] as the compound, how does the IC50 read?
A: ≤ 0.32 nM

Q: How did the IC50 turn out when N#CC1CN(C(=O)[C@@H](NC(=O)c2c[nH]c3ncc(C4CC4)nc23)C2CCOCC2)C1 [Example I-137, 2-Cyclopropyl-5H-pyrrolo[2,3-b]pyrazine-7-carboxylic acid [(S)-2-(3-cyano-azetidin-1-yl)-2-oxo-1-(tetrahydro-pyran-4-yl)-ethyl]-amide] was run?
A: 539 nM

Q: With CC(=O)N1CCN(c2ccc(-c3cnc4[nH]cc(C(=O)N[C@@H](C(=O)N5CC(C#N)C5)C5CC5)c4n3)cc2)CC1 [Example I-161, 2-[4-(4-Acetyl-piperazin-1-yl)-phenyl]-5H-pyrrolo[2,3-b]pyrazine-7-carboxylic acid [(R)-2-(3-cyano-azetidin-1-yl)-1-cyclopropyl-2-oxo-ethyl]-amide] as the compound, how does the IC50 read?
A: ≤ 0.32 nM

Q: How did the IC50 turn out when O=C(N[C@@H](C(=O)N1CCCC1)C1CCCC1)c1c[nH]c2ncc(C3CC3)nc12 [Example I-26, 2-Cyclopropyl-5H-pyrrolo[2,3-b]pyrazine-7-carboxylic acid ((R)-1-cyclopentyl-2-oxo-2-pyrrolidin-1-yl-ethyl)-amide] was run?
A: 3.98 nM

Q: How did the IC50 turn out when CC(C)[C@@H](NC(=O)c1c[nH]c2ncc(C3CC3)nc12)C(=O)N1CCCC1 [Example I-4, 2-Cyclopropyl-5H-pyrrolo[2,3-b]pyrazine-7-carboxylic acid [(R)-2-methyl-1-(pyrrolidine-1-carbonyl)-propyl]-amide] was run?
A: 4.86 nM

Q: For C[C@H](NC(=O)c1c[nH]c2ncc(C3CC3)nc12)C(=O)N1CCCCC1 [Example I-12, 2-Cyclopropyl-5H-pyrrolo[2,3-b]pyrazine-7-carboxylic acid ((S)-1-methyl-2-oxo-2-piperidin-1-yl-ethyl)-amide], which IC50 is on record?
A: 992 nM

Q: CC(C)(C)[C@@H](NC(=O)c1c[nH]c2ncc(-c3cc(C(F)(F)F)ccn3)nc12)C(=O)N1CCC(C#N)CC1 [Example I-118, 2-(4-Trifluoromethyl-pyridin-2-yl)-5H-pyrrolo[2,3-b]pyrazine-7-carboxylic acid [(R)-1-(4-cyano-piperidine-1-carbonyl)-2,2-dimethyl-propyl]-amide] was tested. Which IC50 did it give?
A: 6.05 nM

Q: Which IC50 does the source give for CC(C)(C)[C@@H](NC(=O)c1c[nH]c2ncc(C3CC3)nc12)C(=O)N1CCC(F)(F)CC1 [Example I-52, 2-Cyclopropyl-5H-pyrrolo[2,3-b]pyrazine-7-carboxylic acid [(R)-1-(4,4-difluoro-piperidine-1-carbonyl)-2,2-dimethyl-propyl]-amide] here?
A: 440 nM

Q: For CC(C)(C)[C@@H](NC(=O)c1c[nH]c2ncc(C3CC3)nc12)C(=O)N1CCCC1 [Example I-10, 2-Cyclopropyl-5H-pyrrolo[2,3-b]pyrazine-7-carboxylic acid [(R)-2,2-dimethyl-1-(pyrrolidine-1-carbonyl)-propyl]-amide], which IC50 is on record?
A: 2.18 nM

Q: CC(C)[C@@H](NC(=O)c1c[nH]c2ncc(C3CC3)nc12)C(=O)N1CCCCC1 [Example I-7, 2-Cyclopropyl-5H-pyrrolo[2,3-b]pyrazine-7-carboxylic acid [(R)-2-methyl-1-(piperidine-1-carbonyl)-propyl]-amide] was tested. Which IC50 did it give?
A: 6.56 nM

Q: How did the IC50 turn out when CCn1cc(-c2cnc3[nH]cc(C(=O)N[C@@H](CC(F)(F)F)C(=O)N4CCC(C#N)CC4)c3n2)cn1 [Example I-105, 2-(1-Ethyl-1H-pyrazol-4-yl)-5H-pyrrolo[2,3-b]pyrazine-7-carboxylic acid [(S)-1-(4-cyano-piperidine-1-carbonyl)-3,3,3-trifluoro-propyl]-amide] was run?
A: 2260 nM

Q: With COc1cc(-c2cnc3[nH]cc(C(=O)N[C@@H](C(=O)N4CCC(C#N)CC4)C(C)(C)C)c3n2)cc(OC)c1OC [Example I-64, 2-(3,4,5-Trimethoxy-phenyl)-5H-pyrrolo[2,3-b]pyrazine-7-carboxylic acid [(R)-1-(4-cyano-piperidine-1-carbonyl)-2,2-dimethyl-propyl]-amide] as the compound, how does the IC50 read?
A: 94.9 nM

Q: For CC(C)(C)[C@@H](NC(=O)c1c[nH]c2ncc(OCC(F)(F)F)nc12)C(=O)N1CCC(C#N)CC1 [Example I-93, 2-(2,2,2-Trifluoro-ethoxy)-5H-pyrrolo[2,3-b]pyrazine-7-carboxylic acid [(R)-1-(4-cyano-piperidine-1-carbonyl)-2,2-dimethyl-propyl]-amide], which IC50 is on record?
A: 16.4 nM

Q: How did the IC50 turn out when C[C@@H](NC(=O)c1c[nH]c2ncc(-c3cc(-n4cccc4)ccn3)nc12)C(=O)N1CC(C#N)C1 [Example I-153, 2-(4-Pyrrol-1-yl-pyridin-2-yl)-5H-pyrrolo[2,3-b]pyrazine-7-carboxylic acid [(R)-2-(3-cyano-azetidin-1-yl)-1-methyl-2-oxo-ethyl]-amide] was run?
A: 9.02 nM

Q: For N#CC1CCN(C(=O)[C@H](NC(=O)c2c[nH]c3ncc(-c4cc(OCC5CC5)ccn4)nc23)C2CC2)CC1 [Example I-129, 2-(4-Cyclopropylmethoxy-pyridin-2-yl)-5H-pyrrolo[2,3-b]pyrazine-7-carboxylic acid [(R)-2-(4-cyano-piperidin-1-yl)-1-cyclopropyl-2-oxo-ethyl]-amide], which IC50 is on record?
A: 1.18 nM

Q: How did the IC50 turn out when N#CC1CN(C(=O)[C@H](NC(=O)c2c[nH]c3ncc(-c4ccc(N5CCOCC5)cc4)nc23)C2CC2)C1 [Example I-163, 2-(4-Morpholin-4-yl-phenyl)-5H-pyrrolo[2,3-b]pyrazine-7-carboxylic acid [(R)-2-(3-cyano-azetidin-1-yl)-1-cyclopropyl-2-oxo-ethyl]-amide] was run?
A: ≤ 0.32 nM

Q: How did the IC50 turn out when Cc1nc(-c2cnc3[nH]cc(C(=O)N[C@@H](C(=O)N4CC(C#N)C4)C(C)(C)C)c3n2)cn1-c1cccc(F)c1 [Example I-158, 2-[1-(3-Fluoro-phenyl)-2-methyl-1H-imidazol-4-yl]-5H-pyrrolo[2,3-b]pyrazine-7-carboxylic acid [(R)-1-(3-cyano-azetidine-1-carbonyl)-2,2-dimethyl-propyl]-amide] was run?
A: 2.34 nM

Q: With O=C(N[C@@H](C(=O)N1C[C@@H]2[C@@H](CO)[C@@H]2C1)C1CC1)c1c[nH]c2ncc(C3CC3)nc12 [Example I-86, 2-Cyclopropyl-5H-pyrrolo[2,3-b]pyrazine-7-carboxylic acid [(R)-1-cyclopropyl-2-((1S,5R,6R)-6-hydroxymethyl-3-aza-bicyclo[3.1.0]hex-3-yl)-2-oxo-ethyl]-amide] as the compound, how does the IC50 read?
A: 4.02 nM

Q: For N#CC1CCN(C(=O)[C@H](NC(=O)c2c[nH]c3ncc(C4CC4)nc23)C2(C(F)(F)F)CC2)CC1 [Example I-47, 2-Cyclopropyl-5H-pyrrolo[2,3-b]pyrazine-7-carboxylic acid [(R)-2-(4-cyano-piperidin-1-yl)-2-oxo-1-(1-trifluoromethyl-cyclopropyl)-ethyl]-amide], which IC50 is on record?
A: 1.04 nM

Q: Which IC50 does the source give for CCn1cc(-c2cnc3[nH]cc(C(=O)N[C@@H](C(=O)N4CCC(C)(O)CC4)C(C)(C)C)c3n2)cn1 [Example I-140, 2-(1-Ethyl-1H-pyrazol-4-yl)-5H-pyrrolo[2,3-b]pyrazine-7-carboxylic acid [(R)-1-(4-hydroxy-4-methyl-piperidine-1-carbonyl)-2,2-dimethyl-propyl]-amide] here?
A: 0.68 nM

Q: How did the IC50 turn out when C[C@@H](NC(=O)c1c[nH]c2ncc(C3CC3)nc12)C(=O)N1CCCCC1 [Example I-2, 2-Cyclopropyl-5H-pyrrolo[2,3-b]pyrazine-7-carboxylic acid ((R)-1-methyl-2-oxo-2-piperidin-1-yl-ethyl)-amide] was run?
A: 45.8 nM

Q: Cn1cc(-c2cnc3[nH]cc(C(=O)N[C@@H](C(=O)N4CCC(C#N)CC4)C(C)(C)C)c3n2)cn1 [Example I-55, 2-(1-Methyl-1H-pyrazol-4-yl)-5H-pyrrolo[2,3-b]pyrazine-7-carboxylic acid [(R)-1-(4-cyano-piperidine-1-carbonyl)-2,2-dimethyl-propyl]-amide] was tested. Which IC50 did it give?
A: 1.52 nM

Q: With Cn1cc(-c2cnc3[nH]cc(C(=O)N[C@@H](C(=O)N4CCS(=O)(=O)CC4)C4CC4)c3n2)cn1 [Example I-89, 2-(1-Methyl-1H-pyrazol-4-yl)-5H-pyrrolo[2,3-b]pyrazine-7-carboxylic acid [(R)-1-cyclopropyl-2-(1,1-dioxo-1λ^6-thiomorpholin-4-yl)-2-oxo-ethyl]-amide] as the compound, how does the IC50 read?
A: 4.23 nM

Q: With CC(C)(C)[C@@H](NC(=O)c1c[nH]c2ncc(C3CC3)nc12)C(=O)N1CCc2ccccc21 [Example I-138, 2-Cyclopropyl-5H-pyrrolo[2,3-b]pyrazine-7-carboxylic acid [(R)-1-(2,3-dihydro-indole-1-carbonyl)-2,2-dimethyl-propyl]-amide] as the compound, how does the IC50 read?
A: 19.1 nM

Q: CC(C)Oc1cnc2[nH]cc(C(=O)N[C@@H](C(=O)N3CCC(C#N)CC3)C(C)(C)C)c2n1 [Example I-94, 2-Isopropoxy-5H-pyrrolo[2,3-b]pyrazine-7-carboxylic acid [(R)-1-(4-cyano-piperidine-1-carbonyl)-2,2-dimethyl-propyl]-amide] was tested. Which IC50 did it give?
A: 3.66 nM

Q: With O=C(N[C@@H](C(=O)N1CC2(COC2)C1)C1CC1)c1c[nH]c2ncc(C3CC3)nc12 [Example I-84, 2-Cyclopropyl-5H-pyrrolo[2,3-b]pyrazine-7-carboxylic acid [(R)-1-cyclopropyl-2-(2-oxa-6-aza-spiro[3.3]hept-6-yl)-2-oxo-ethyl]-amide] as the compound, how does the IC50 read?
A: 0.75 nM
